These results are taken from patent US20060063784A1, “Method of using substituted pyrazolo [1,5-a] pyrimidines” (priority 2004, published 2006).

One assay concerns 80S14 (p21-deficient) cells. In words: Cytotoxicity assay using isogenic cell lines: IC50 in 80S14 (p21-deficient) cells, SRB. In kind it is cell-based, human. Particulars: 80S14 (p21-deficient) cells, 5 days, SRB; class symbols; read-out: IC50 for 80S14. As to the method: Cytotoxicity Assay Using Isogenic Cell Lines: • 1. 80S14 (p21-deficient) cells were cultured in RPMI 1640 medium (Gibco/Invitrogen Life technologies) supplemented with 10% fetal bovine serum (FBS, Gibco) and 10 μg/ml gentamycin (Gibco). Cells were maintained at 37° C. under 7% CO2 • 2. Cells were plated at 6×10^4/ml (0.2 ml/well; 12,000 cells/well) in 96-well microtiter plates (Falcon or Corning/Costar) and incubated at 37° C. overnight (18-24 hours). • 3. 2-5 μl of the test agent [200 μg/ml stock in 20% DMSO/20 mM HEPES, pH 7.5 (Gibco)] was added to each well to achieve a final concentration of 2-5 μg/ml. Cells were incubated with the test compounds for 5 days at 37° C. • 4. Surviving cells were fixed with 50 μl 50% trichloroacetic acid (Sigma; 10% final concentration) for 1 hour at 4° C. • 5. Plates were rinsed twice with water (0.3 ml per wash using MRD8 robot), and allowed to dry. • 6. Sulforhodamine B (SRB) (Sigma; 0.4% in 1% acetic acid, 50 μl per well; MRD8 robot) was added and plates kept at room temperature for 10 minutes. • 7. Excess dye was removed by washing with 1% acetic acid (3 times, 0.3 ml per wash; MRD8 robot) and allowed to dry. • 8. The dye was solubilized in Tris base (Sigma; 10 mM, 150 μl per well). Plates were kept at room temperature for 30 minutes to allow the dye to diffuse. • 9. Absorbance was measured at 540 nm. • 10. The percentage of cells surviving drug treatment relative to control wells (no drug) was determined. • 11. The difference in % cell survival between the two cell lines was calculated. • 12. Compounds producing a difference score of >50 were considered to be selective for the p21-deficient cells and were evaluated further: Determination of selectivity of compounds for p21−/− cells: • 1. 80S14 cells were cultured as described above. • 2. Cells were seeded in 96-well microtiter plates at 12,000 cells/well (either 0.15 ml/well of 8×10^4 cells/ml suspension, or 0.2 ml/well of 6×10^4 cells/ml suspension). Plates were incubated at 37° C. overnight (18-24 hours). • 3. Serial dilutions of the test agent were added to each well. Dilutions were prepared either in 40% DMSO/20% methanol/20 mM HEPES, pH 7.5 (Gibco) or directly in growth medium. One of two dose ranges were used: 5 pM to 50 μM or 170 pg/ml to 10 μg/ml. Cells were incubated with the test compounds for 5 days at 37° C. • 4. Surviving cells were fixed with 50 μl 50% trichloroacetic acid (Sigma; 10% final concentration) for 1 hour at 4° C. • 5. Plates were rinsed extensively in water, and allowed to dry. • 6. Sulforhodamine B (Sigma; 0.4% in 1% acetic acid, 70 μl per well) was added and plates kept at room temperature for 10 minutes. • 7. Excess dye was removed by washing 5 times with 1% acetic acid and plates were allowed to dry. • 8. The dye was solubilized in Tris base (Sigma; 10 mM, 150 μl per well). Plates were placed on a titer plate shaker (Lab Line Instruments) for 5 minutes to allow the dye to diffuse. • 9. Absorbance was measured at 560 nm.
10. The drug concentration that inhibits cell proliferation by 50% relative to untreated controls (IC50) was determined from cytotoxicity curves.
Consider “N,N′-diethyl-3-[3-(2-thienylcarbonyl)-pyrazolo[1,5-a]pyrimidin-7-yl]-benzamide [Example 248]”, for which the half-inhibitory concentration (IC50) lay within 10 to 50 µM.

The assay is the same for the next values; noted with them: 80S14 p21-deficient cells, 5 days incubation, SRB; read-out: IC50 for 80SI4.
On to `C[C@H](NC(=O)Nc1cccc(-c2ccnc3c(C(=O)c4cccs4)cnn23)c1)c1ccccc1` [Example 11, N-[(1S)-1-phenylethyl]-N′-{3-[3-(thien-2-ylcarbon1)pyrazolo[1,5-a]pyrimidin-7-yl]phenyl}urea], for which the half-inhibitory concentration (IC50) is 1 to 10 µM.

`NCC(=O)Nc1cccc(-c2ccnc3c(C(=O)c4cccs4)cnn23)c1` [Example 77, N-1-{3-[3-(thien-2-ylcarbonyl)pyrazolo[1,5-a]pyrimidin-7-yl]phenyl}gylcinamide]: the IC50 lay in the range of 10 to 50 µM.

On to `CCC(C)C(=O)Nc1cccc(-c2ccnc3c(C(=O)c4cccs4)cnn23)c1` (stereo not shown) [Example 145], for which the IC50 was < 1 µM.

The same assay, now with this note: Homo sapiens, 80S14, 120 h, read-out: IC50 for 80S14 (uM).
As to `CC(C)C(=O)Nc1cccc(-c2ccnc3c(C(=O)c4ccco4)cnn23)c1` [Example 241, N-[3-[3-(2-Furanylcarbonyl)pyrazolo-[1,5-a]pyrimidin-7-yl]phenyl}-2-methyl-propanamide], the IC50 is 1 to 10 µM.

Consider `CCC(=O)Nc1cccc(-c2ccnc3c(C(=O)c4cccs4)cnn23)c1` [Example 251, N-[3-[3-(2-Thienylcarbonyl)pyrazolo[1,5-a]pyrimidin-7-yl]phenyl}-propanamide], for which the IC50 is < 1 µM.

Still in this assay, the particulars now being: Homo sapiens, 120 h; 80S14 (p21-deficient) cells, 5 days, SRB; class symbols; read-out: IC50 for 80S14.
Consider `O=C(Nc1cccc(-c2ccnc3c(C(=O)c4cccs4)cnn23)c1)c1cnc[nH]1` [Example 415, N-{3-[3-(Thien-2-ylcarbonyl)pyrazolo[1,5-a]pyrimidin-7-yl]phenyl}-1H-imidazole-5-carboxamide], for which the IC50 was < 1 µM.

Regarding `O=C(c1ccccc1)c1cnn2c(-c3cccc(N4CCCCC4=O)c3)ccnc12` [Example 227, 1-[3-(3-Benzoylpyrazolo[1,5-a]-pyrimidin-7-yl)phenyl]-2-piperidinone], the half-maximal inhibitory concentration (IC50) lay in the range of 10 to 50 µM.

Consider `Cc1cc(-c2cccc(NC(=O)C3CCC3)c2)n2ncc(C(=O)c3cccs3)c2n1` [Example 279, N-{3-[5-Methyl-3-(2-thienylcarbonyl)pyrazolo[1,5-a]pyrimidin-7-yl]phenyl}cyclobutanecarboxamide], for which the IC50 is < 1 µM.

Turning to `CC(C)COC(=O)Nc1cccc(-c2ccnc3c(Br)cnn23)c1` [Example 327, Isobutyl 3-(3-bromopyrazolo[1,5-a]pyrimidin-7-yl)phenylcarbamate], the half-maximal inhibitory concentration (IC50) was in the range of 10 to 50 µM.

Turning to `CC(C)CC(=O)Nc1cccc(-c2ccnc3c(Br)cnn23)c1` [Example 330, N-[3-(3-Bromopyrazolo[1,5-a]pyrimidin-7-yl)phenyl]-3-methylbutanamide], the IC50 is 10 to 50 µM.

On to `O=C(c1cccs1)c1cnn2c(-c3cccc(OC4CCCC4)c3)ccnc12` [Example 265, [7-[3-(Cyclopentyloxy)phenyl]pyrazolo[1,5-a]pyrimidin-3-yl]-2-thienyl-methanone], for which the IC50 fell in the range of 1 to 10 µM.

Regarding `CCCCC/C(=C\c1ccccc1)CNc1cccc(-c2ccnc3c(C(=O)c4cccs4)cnn23)c1` [Example 410, [7-(3-{[(2E)-2-Pentyl-3-phenylprop-2-enyl]amino}phenyl)pyrazolo[1,5-a]pyrimidin-3-yl](thien-2-yl)methanone], the concentration for half-maximal inhibition (IC50) is 10 to 50 µM.

`CC(C)NC(=O)c1cccc(-c2ccnc3c(C(=O)c4cccs4)cnn23)c1` [Example 322, N-Isopropyl-3-[3-(2-thienylcarbonyl)pyrazolo[1,5-a]pyrimidin-7-yl]benzamide]: the IC50 is < 1 µM.

`O=C(c1cccs1)c1cnn2c(-c3cccc(NC(=O)C4CCNCC4)c3)ccnc12` [Example 408, N-{3-[3-(Thien-2-ylcarbonyl)pyrazolo[1,5-a]pyrimidin-7-yl]phenyl}piperidine-4-carboxamide]: the IC50 is 1 to 10 µM.

The assay is the same for the next values; noted with them: Homo sapiens, 120 h; 80S14 p21-deficient cells, 5 days incubation, SRB; read-out: IC50 for 80SI4.
As for `CN(C)S(=O)(=O)Nc1cccc(-c2ccnc3c(C(=O)c4cccs4)cnn23)c1` [Example 40, N,N-dimethyl-N′-{3-[3-(thien-2-ylcarbonyl)pyrazolo[1,5-a]pyrimidin-7-yl]phenyl}sulfamide], the IC50 was 1 to 10 µM.

Take `COC(=O)CCC(=O)Nc1cccc(-c2ccnc3c(C(=O)c4cccs4)cnn23)c1` [Example 42, methyl 4-oxo-4-({3-[3-(thien-2-ylcarbonyl)pyrazolo[1,5-a]pyrimidin-7-yl]phenyl}amino)butanoate]: the IC50 lay within 10 to 50 µM.

Consider `O=C(Cc1ccc(F)cc1)Nc1cccc(-c2ccnc3c(C(=O)c4cccs4)cnn23)c1` [Example 109, 2-(4-fluorophenyl)-N-{3-[3-(thien-2-ylcarbonyl)pyrazolo[1,5-a]pyrimidin-7-yl]phenyl}acetamide], for which the IC50 is < 1 µM.

With `CC(CC(=O)Nc1cccc(-c2ccnc3c(C(=O)c4cccs4)cnn23)c1)C(F)(F)F` (stereo not shown) [Example 59, 4,4,4-trifluoro-3-methyl-N-{3-[3-(thien-2-ylcarbonyl)pyrazolo[1,5-a]pyrimidin-7-yl]phenyl}butanamide], the IC50 is < 1 µM.

Turning to `Cc1ccc(C(=O)Nc2cccc(-c3ccnc4c(C(=O)c5cccs5)cnn34)c2)cc1` [Example 87, 4-methyl-N-{3-[3-(thien-2-ylcarbonyl)pyrazolo[1,5-a]pyrimidin-7-yl]phenyl]benzamide], the IC50 was < 1 µM.

`O=C(CNC(=O)C1CC1)Nc1cccc(-c2ccnc3c(C(=O)c4cccs4)cnn23)c1` [Example 126, N-[2-oxo-2-({3-[3-(thien-2-ylcarbonyl)pyrazolo[1,5-a]pyrimidin-7-yl]phenyl}amino)ethyl]cyclopropanecarboxamide]: the IC50 lay in the range of 10 to 50 µM.

Regarding `COc1ccc(C(=O)Nc2cccc(-c3ccnc4c(C(=O)c5cccs5)cnn34)c2)cc1` [Example 88, 4-methoxy-N-{3-[3-(thien-2-ylcarbonyl)pyrazolo[1,5-a]pyrimidin-7-yl]phenyl]benzamide], the IC50 is < 1 µM.

As for `Cc1cnc2c(C(=O)c3cccs3)cnn2c1-c1cccc(NC(=O)C2CCCC2)c1` [Example 218, N-{3-[6-methyl-3-(thien-2-ylcarbonyl)pyrazolo[1,5-a]pyrimidin-7-yl]phenyl}cyclopentanecarboxamide], the half-inhibitory concentration (IC50) lay within 10 to 50 µM.

In the case of `Cc1cnc2c(C(=O)c3cccs3)cnn2c1-c1cccc(NC(=O)c2ccccc2)c1` [Example 216, N-{3-[6-methyl-3-(thien-2-ylcarbonyl)pyrazolo[1,5-a]pyrimidin-7-yl]phenyl}benzamide], the half-inhibitory concentration (IC50) fell in the range of 10 to 50 µM.

Take `COCCOCC(=O)Nc1cccc(-c2ccnc3c(C(=O)c4cccs4)cnn23)c1` [Example 63, 2-(2-methoxyethoxy)-N-{3-[3-(thien-2-ylcarbonyl)pyrazolo[1,5-a]pyrimidin-7-yl]phenyl}acetamide]: the IC50 lay in the range of 1 to 10 µM.

For the compound `CCCC(OC(=O)Nc1cccc(-c2ccnc3c(C(=O)c4cccs4)cnn23)c1)C(C)C` (stereo not shown) [Example 192, 1-isopropylbutyl 3-[3-(thien-2-ylcarbonyl)pyrazolo[1,5-a]pyrimidin-7-yl]phenylcarbamate], the concentration for half-maximal inhibition (IC50) fell in the range of 1 to 10 µM.

For `COc1cccc(C(=O)Nc2cccc(-c3ccnc4c(C(=O)c5cccs5)cnn34)c2)c1` [Example 97, 3-methoxy-N-{3-[3-(thien-2-ylcarbonyl)pyrazolo[1,5-a]pyrimidin-7-yl]phenyl}benzamide], the IC50 is < 1 µM.

Regarding `CN1CCN(C(=O)Nc2cccc(-c3ccnc4c(C(=O)c5cccs5)cnn34)c2)CC1` [Example 166, 4-methyl-N-{3-[3-(thien-2-ylcarbonyl)pyrazolo[1,5-a]pyrimidin-7-yl]phenyl}piperazine-1-carboxamide], the IC50 is 1 to 10 µM.

The IC50 is the point on the concentration scale where inhibition reaches its midpoint.
